US11105794B2, “In vitro nephrotoxicity screening assay” (Hoffmann-La Roche Inc., priority 2016, dated 2021)
l = locked nucleic acid (LNA); d = 2'-deoxy (DNA)

Tested on: Human primary proximal tubule epithelial cells (PTEC)
Experiment: EGF assay, supernatant of primary PTEC cells
Protocol: Prior to treatment with oligonucleotides the primary PTEC cells were seeded into collagen I-coated 96-well plates (Corning, 356407) at a density of 40 000 and 20 000 cells/well respectively in PTEC medium and grown until confluence.
Oligonucleotides were dissolved in PBS and added to the cell culture at the given concentration, such as 10, 30 or 100 μM. The total volume of each well was 100 μl. PBS served as vehicle control.
When extra cellular markers, like EGF and KIM-1, were analyzed following the oligonucleotide treatment the medium was collected and stored at −20° C. until further analysis. […] The collected medium was stored at −20° C.
For analysis of human EGF, cell supernatants were thawed on ice, diluted 1:2 and 1:10 in sample dilution buffer (BioRad catalog # M60-009RDPD) and analyzed by Luminex®-based ELISA using human EGF beads (Bio-Plex Pro™ Human Cancer Biomarker Panel 2 EGF Set#171BC603M), or followed by analysis using the Bio-Plex® 200 Systems (BioRad) according to the manufacturer's instructions. Data are reported as mean concentrations and standard deviations of triplicate wells. An increase of EGF levels above 200% was considered as predictive for nephrotoxicity.

| Substance | EGF (Day 3, 3 μM) | EGF (Day 3, 10 μM) | EGF (Day 3, 30 μM) | EGF (Day 3, 100 μM) | EGF (Day 6, 3 μM) | EGF (Day 6, 10 μM) | EGF (Day 6, 30 μM) | EGF (Day 6, 100 μM) |
| --- | --- | --- | --- | --- | --- | --- | --- | --- |
| GCtgtgtgagcttGG (antisense GCTGTGTGAGCTTGG; sugars from the 5' end l2 d11 l2, backbone and methylation of C not given here) [Compound 4-1] | 198 % saline | 323 % saline | 373 % saline | 631 % saline | 525 % saline | 1171 % saline | 1588 % saline | 1403 % saline |
| TGCtacaaaacCCA (antisense TGCTACAAAACCCA; sugars from the 5' end l3 d8 l3, backbone and methylation of C not given here) [Compound 3-1] | 114 % saline | 139 % saline | 134 % saline | 269 % saline | 152 % saline | 286 % saline | 653 % saline | 915 % saline |
